This passage reports IC50 results from patent US11739098B2 (BRISTOL-MYERS SQUIBB COMPANY, priority 2017, dated 2023).

Structures are written as SMILES.

Holding throughout (type): cell-based
Assay [1] concerns the target T1, human TLR9 (Homo sapiens, UniProt Q9NR96).
T1 construct: host or cells: HEK-Blue cells (HEK293-derived reporter line)
T1 sequence (Q9NR96 26-1032): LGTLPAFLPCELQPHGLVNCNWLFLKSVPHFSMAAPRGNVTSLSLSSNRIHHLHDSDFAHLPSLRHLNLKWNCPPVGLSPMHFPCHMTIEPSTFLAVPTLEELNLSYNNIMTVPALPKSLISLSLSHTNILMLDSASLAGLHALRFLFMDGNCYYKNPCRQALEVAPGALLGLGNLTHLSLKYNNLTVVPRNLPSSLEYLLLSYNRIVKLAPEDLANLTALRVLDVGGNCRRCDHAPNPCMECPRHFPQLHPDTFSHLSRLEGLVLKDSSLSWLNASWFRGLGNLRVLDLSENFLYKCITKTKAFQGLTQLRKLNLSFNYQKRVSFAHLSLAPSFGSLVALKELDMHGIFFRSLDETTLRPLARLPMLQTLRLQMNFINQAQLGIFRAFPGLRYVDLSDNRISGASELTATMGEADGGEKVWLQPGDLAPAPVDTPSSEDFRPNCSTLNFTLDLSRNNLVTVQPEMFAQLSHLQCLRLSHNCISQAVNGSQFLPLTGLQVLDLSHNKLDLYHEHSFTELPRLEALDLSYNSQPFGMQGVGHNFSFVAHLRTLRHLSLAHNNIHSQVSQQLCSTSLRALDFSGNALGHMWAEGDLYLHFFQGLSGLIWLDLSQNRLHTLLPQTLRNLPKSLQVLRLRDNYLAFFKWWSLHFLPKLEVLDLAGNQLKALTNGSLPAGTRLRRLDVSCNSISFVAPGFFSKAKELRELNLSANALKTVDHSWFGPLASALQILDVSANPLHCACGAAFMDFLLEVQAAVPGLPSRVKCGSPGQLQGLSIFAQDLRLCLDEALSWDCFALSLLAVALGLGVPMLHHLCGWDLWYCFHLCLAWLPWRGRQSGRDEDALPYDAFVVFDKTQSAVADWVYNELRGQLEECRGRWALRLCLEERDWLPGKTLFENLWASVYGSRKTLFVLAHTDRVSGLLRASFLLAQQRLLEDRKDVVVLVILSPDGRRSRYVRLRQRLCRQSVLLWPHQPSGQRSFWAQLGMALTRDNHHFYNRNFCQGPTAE
As to the kind of experiment: TLR9 inhibition reporter assay (HEK-Blue cells, SEAP reporter, ODN2006 stimulation). The conditions noted are these: HEK-Blue cells overexpressing human TLR9, SEAP reporter, ODN2006 5 nM. In short, it runs like this: (§1)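 HEK-Blue cells overexpressing the receptor, with NF-κB/AP-1-driven SEAP, were pre-treated 30 min at room temperature with compound (0.05 nM–50 μM), then stimulated with gardiquimod 7.5 μM (TLR7), R848 15.9 μM (TLR8) or ODN2006 5 nM (TLR9). SEAP was read after 22 h at 37 °C as percent inhibition.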

In assay [2] the target is T2, human TLR8 (Homo sapiens, UniProt Q9NR97).
T2 construct: host or cells: HEK-Blue cells (HEK293-derived reporter line)
T2 sequence (Q9NR97 27-1041): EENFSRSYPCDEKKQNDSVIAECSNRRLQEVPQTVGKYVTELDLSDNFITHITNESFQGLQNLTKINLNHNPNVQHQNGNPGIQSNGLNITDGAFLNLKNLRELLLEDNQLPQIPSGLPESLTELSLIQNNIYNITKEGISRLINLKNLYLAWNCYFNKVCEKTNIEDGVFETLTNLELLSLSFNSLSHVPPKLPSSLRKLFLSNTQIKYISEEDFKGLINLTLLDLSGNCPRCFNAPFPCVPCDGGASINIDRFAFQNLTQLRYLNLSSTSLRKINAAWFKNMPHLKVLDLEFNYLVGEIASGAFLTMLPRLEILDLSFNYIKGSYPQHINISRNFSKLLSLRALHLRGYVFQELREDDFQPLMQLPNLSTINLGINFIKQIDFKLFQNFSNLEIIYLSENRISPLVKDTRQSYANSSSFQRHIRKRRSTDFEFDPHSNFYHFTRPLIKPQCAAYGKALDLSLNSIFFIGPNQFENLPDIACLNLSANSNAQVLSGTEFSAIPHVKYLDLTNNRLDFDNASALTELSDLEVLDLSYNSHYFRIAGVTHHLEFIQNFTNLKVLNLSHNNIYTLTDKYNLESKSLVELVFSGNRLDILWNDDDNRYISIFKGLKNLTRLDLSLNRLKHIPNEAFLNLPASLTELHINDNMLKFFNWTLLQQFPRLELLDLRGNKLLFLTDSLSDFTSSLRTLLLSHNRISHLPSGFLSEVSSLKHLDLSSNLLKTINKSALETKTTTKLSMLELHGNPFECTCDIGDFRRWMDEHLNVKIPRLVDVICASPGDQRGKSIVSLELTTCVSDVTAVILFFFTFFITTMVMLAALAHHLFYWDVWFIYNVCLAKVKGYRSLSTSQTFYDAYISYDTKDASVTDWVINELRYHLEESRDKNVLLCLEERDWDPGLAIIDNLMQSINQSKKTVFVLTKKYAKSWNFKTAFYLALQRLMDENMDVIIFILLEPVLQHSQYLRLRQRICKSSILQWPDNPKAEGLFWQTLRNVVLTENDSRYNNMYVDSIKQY
As to the kind of experiment: TLR8 inhibition reporter assay (HEK-Blue cells, SEAP reporter, R848 stimulation). The settings on record: HEK-Blue cells overexpressing human TLR8, SEAP reporter, R848 15.9 μM. In short, it runs like this: as §1

Assay [3] addresses T3, human TLR7 (Homo sapiens, UniProt Q9NYK1).
T3 construct: host or cells: HEK-Blue cells (HEK293-derived reporter line)
T3 sequence (Q9NYK1 27-1049): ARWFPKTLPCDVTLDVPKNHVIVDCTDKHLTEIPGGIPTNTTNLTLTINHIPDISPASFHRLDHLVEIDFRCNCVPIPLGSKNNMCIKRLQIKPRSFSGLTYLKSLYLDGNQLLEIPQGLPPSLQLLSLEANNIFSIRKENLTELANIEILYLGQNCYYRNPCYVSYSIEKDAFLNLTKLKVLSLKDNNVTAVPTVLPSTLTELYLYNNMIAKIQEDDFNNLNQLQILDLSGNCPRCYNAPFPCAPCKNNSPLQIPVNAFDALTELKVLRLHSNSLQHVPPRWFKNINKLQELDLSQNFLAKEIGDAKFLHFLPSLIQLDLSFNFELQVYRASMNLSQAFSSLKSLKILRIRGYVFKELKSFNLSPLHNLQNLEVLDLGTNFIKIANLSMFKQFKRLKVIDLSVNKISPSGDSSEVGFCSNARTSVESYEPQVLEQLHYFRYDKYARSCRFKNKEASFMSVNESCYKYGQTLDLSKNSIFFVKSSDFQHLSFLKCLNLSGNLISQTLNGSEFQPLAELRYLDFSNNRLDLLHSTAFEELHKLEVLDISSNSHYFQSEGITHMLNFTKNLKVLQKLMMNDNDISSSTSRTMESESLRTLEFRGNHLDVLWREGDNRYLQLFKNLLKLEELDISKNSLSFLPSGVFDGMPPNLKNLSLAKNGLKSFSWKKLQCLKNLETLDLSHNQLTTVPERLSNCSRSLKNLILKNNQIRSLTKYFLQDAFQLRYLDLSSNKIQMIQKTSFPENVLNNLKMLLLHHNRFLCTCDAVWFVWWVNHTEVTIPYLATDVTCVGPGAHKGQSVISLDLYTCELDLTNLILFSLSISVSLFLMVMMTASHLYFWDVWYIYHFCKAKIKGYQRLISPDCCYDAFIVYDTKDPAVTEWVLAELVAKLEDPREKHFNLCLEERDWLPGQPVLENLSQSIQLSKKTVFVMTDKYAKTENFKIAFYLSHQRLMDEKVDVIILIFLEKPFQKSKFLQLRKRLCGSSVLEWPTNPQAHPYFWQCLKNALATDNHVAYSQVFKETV
As to the kind of experiment: TLR7 inhibition reporter assay (HEK-Blue cells, SEAP reporter, gardiquimod stimulation). The conditions noted are these: HEK-Blue cells overexpressing human TLR7, SEAP reporter, gardiquimod 7.5 μM. In short, it runs like this:
as §1

`Cc1cc(-c2[nH]c3ccc(C4CCN(C(=O)CCN5[C@@H]6CC[C@H]5COC6)CC4)cc3c2C(C)C)cn2nnnc12` [Example 635, 3-((1R,5S)-3-oxa-8-azabicyclo[3.2.1]octan-8-yl)-1-(4-(3-isopropyl-2-(8-methyltetrazolo[1,5-a]pyridin-6-yl)-1H-indol-5-yl)piperidin-1-yl)propan-1-one]: the IC50 in assay [1] was 1000 to 50000 nM; in assay [2] it was less than 100 nM; in assay [3], less than 100 nM.
With `Cc1cc(-c2[nH]c3ccc(C4CCN(C(=O)CN(C)C)CC4)cc3c2C(C)C)c(C)n2nnnc12` [Example 469, 2-(dimethylamino)-1-(4-(2-(5,8-dimethyltetrazolo[1,5-a]pyridin-6-yl)-3-isopropyl-1H-indol-5-yl)piperidin-1-yl)ethan-1-one], the IC50 in assay [1] was 1000 to 50000 nM; in assay [2], less than 100 nM; in assay [3] it was less than 100 nM.
For `CC(C)c1c(-c2ccc3nccn3c2)[nH]c2ccc(C3CCNCC3)cc12` [Example 188, 6-(3-isopropyl-5-(piperidin-4-yl)-1H-indol-2-yl)imidazo[1,2-a]pyridine], the IC50 in assay [1] was 100 to 1000 nM; in assay [2], 100 to 1000 nM; in assay [3], less than 100 nM.
As for `Cc1cnc2ccc(-c3[nH]c4ccc(C5CCNCC5)cc4c3C(C)C)cn12` [Example 114, 6-(3-isopropyl-5-(piperidin-4-yl)-1H-indol-2-yl)-3-methylimidazo[1,2-a]pyridine], the IC50 in assay [1] is 100 to 1000 nM; in assay [2], 100 to 1000 nM; in assay [3], less than 100 nM.
Take `CC(C)c1c(-c2ccn3nncc3c2)[nH]c2ccc(C3CCNCC3)cc12` [Example 81, 5-(3-isopropyl-5-(piperidin-4-yl)-1H-indol-2-yl)-[1,2,3]triazolo[1,5-a]pyridine]: the IC50 in assay [1] was 1000 to 50000 nM; in assay [2], 100 to 1000 nM; in assay [3], less than 100 nM.
For the compound `CC(C)c1c(-c2ccc3nccn3c2)[nH]c2ccc(C3CCN(C(C)C)CC3)cc12` [Example 946, 6-(3-isopropyl-5-(1-isopropylpiperidin-4-yl)-1H-indol-2-yl)imidazo[1,2-a]pyridine], the IC50 in assay [1] was 100 to 1000 nM; in assay [2] it was less than 100 nM; in assay [3] it was less than 100 nM.
Regarding `CC(=O)N1CCC[C@H]1C(=O)N1CCC(c2ccc3[nH]c(-c4ccnc5[nH]ncc45)c(C(C)C)c3c2)CC1` [Example 566, (S)-1-(2-(4-(3-isopropyl-2-(1H-pyrazolo[3,4-b]pyridin-4-yl)-1H-indol-5-yl)piperidine-1-carbonyl)pyrrolidin-1-yl)ethan-1-one], the IC50 in assay [1] was greater than 50000 nM; in assay [2] it was 100 to 1000 nM; in assay [3] it was 100 to 1000 nM.
Consider `CC(C)c1c(-c2ccnc3[nH]ncc23)[nH]c2ccc(C3CCN(CCCN(C)C)CC3)cc12` [Example 845, 3-(4-(3-isopropyl-2-(1H-pyrazolo[3,4-b]pyridin-4-yl)-1H-indol-5-yl)piperidin-1-yl)-N,N-dimethylpropan-1-amine], for which the IC50 in assay [1], in assay [2] and in assay [3] was 100 to 1000 nM throughout.
For the compound `Cc1cc(-c2[nH]c3ccc(C4CCN(Cc5cnn[nH]5)CC4)cc3c2C(C)C)cn2nnnc12` [Example 883, 6-(5-(1-((1H-1,2,3-triazol-5-yl)methyl)piperidin-4-yl)-3-isopropyl-1H-indol-2-yl)-8-methyltetrazolo[1,5-a]pyridine], the values for the concentration for half-maximal inhibition (IC50) in assay [1], in assay [2] and in assay [3] were 1000 to 50000 nM, less than 100 nM and less than 100 nM, respectively.
As to `Cc1cc2cc(-c3[nH]c4ccc(C5CCNCC5)cc4c3C(C)C)cc(CC(C)C)n2n1` [Example 144, 7-isobutyl-5-(3-isopropyl-5-(piperidin-4-yl)-1H-indol-2-yl)-2-methylpyrazolo[1,5-a]pyridine], the IC50 was 1000 to 50000 nM in assay [1], greater than 3130 nM in assay [2] and greater than 3130 nM in assay [3].
`CC(C)c1c(-c2nc3cnccn3n2)[nH]c2ccc(C3CCNCC3)cc12` [Example 195, 2-(3-isopropyl-5-(piperidin-4-yl)-1H-indol-2-yl)-[1,2,4]triazolo[1,5-a]pyrazine]: the IC50 in assay [1] is 1000 to 50000 nM; in assay [2], less than 100 nM; in assay [3], 1000 to 50000 nM.
As to `CCc1c(-c2ccnc3[nH]ncc23)[nH]c2ccc(C3CCN(C(C)C)CC3)cc12` [Example 957, 4-(3-ethyl-5-(1-isopropylpiperidin-4-yl)-1H-indol-2-yl)-1H-pyrazolo[3,4-b]pyridine], the IC50 in assay [1] is 1000 to 50000 nM; in assay [2] it was less than 100 nM; in assay [3], 100 to 1000 nM.
For `Cc1c(-c2[nH]c3ccc(C4CCNCC4)cc3c2C(C)C)cn2nnnc2c1C` [Example 73, 6-(3-isopropyl-5-(piperidin-4-yl)-1H-indol-2-yl)-7,8-dimethyltetrazolo[1,5-a]pyridine] the same measures were 1000 to 50000 nM, less than 100 nM and less than 100 nM.
